The results in this text go back to patent US20240217990A1 (Gilead Sciences, Inc., priority 2021, published 2024).

One assay addresses T1, TLR7 (Homo sapiens, UniProt Q9NYK1).
T1 construct: Human peripheral blood mononuclear cells (PBMCs) consist of lymphocytes, monocytes and dendritic cells that express TLR7, TLR8 and TLR9; endogenous in cells; host or cells: cryopreserved human PBMCs from healthy donors
T1 sequence (Q9NYK1 27-1049): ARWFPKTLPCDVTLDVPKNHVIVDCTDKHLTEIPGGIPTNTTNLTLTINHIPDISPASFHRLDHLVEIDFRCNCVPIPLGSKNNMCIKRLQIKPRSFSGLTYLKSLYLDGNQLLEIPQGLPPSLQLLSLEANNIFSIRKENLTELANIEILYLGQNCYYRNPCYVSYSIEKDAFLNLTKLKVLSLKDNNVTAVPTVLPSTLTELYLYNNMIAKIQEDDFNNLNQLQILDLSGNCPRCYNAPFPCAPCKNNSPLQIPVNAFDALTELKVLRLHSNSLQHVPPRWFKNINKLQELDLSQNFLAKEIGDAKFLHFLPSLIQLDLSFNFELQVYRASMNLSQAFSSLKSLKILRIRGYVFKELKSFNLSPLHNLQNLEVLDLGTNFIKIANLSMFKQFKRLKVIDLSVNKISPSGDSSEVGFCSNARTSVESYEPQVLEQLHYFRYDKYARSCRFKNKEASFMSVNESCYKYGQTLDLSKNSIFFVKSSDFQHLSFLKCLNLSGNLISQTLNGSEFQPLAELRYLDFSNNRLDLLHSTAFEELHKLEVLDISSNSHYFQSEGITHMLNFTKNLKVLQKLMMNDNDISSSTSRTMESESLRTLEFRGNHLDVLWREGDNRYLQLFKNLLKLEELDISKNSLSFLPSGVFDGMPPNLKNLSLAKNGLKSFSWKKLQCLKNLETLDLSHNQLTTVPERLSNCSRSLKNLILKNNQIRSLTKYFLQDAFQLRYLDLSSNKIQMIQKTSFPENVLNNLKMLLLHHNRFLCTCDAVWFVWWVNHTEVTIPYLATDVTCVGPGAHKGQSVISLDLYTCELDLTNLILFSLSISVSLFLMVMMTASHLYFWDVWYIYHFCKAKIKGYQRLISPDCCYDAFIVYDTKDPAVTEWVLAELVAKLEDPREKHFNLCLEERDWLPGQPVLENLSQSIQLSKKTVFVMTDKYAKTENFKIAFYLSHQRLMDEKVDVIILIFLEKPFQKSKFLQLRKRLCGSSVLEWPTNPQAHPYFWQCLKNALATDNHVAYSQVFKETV
Description: TLR7 human PBMC cell-based assay (antagonist, GS-986 stimulated cytokine release). As to conditions: human PBMCs; TLR7 agonist GS-986 400 nM, 6 hours; cytokines (IL-6 and IFNα) in supernatant; read-out: TLR-7 EC50. In short, it runs like this: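 EC50 derived by sigmoidal fitting of IL-6 and IFNα levels, quantified by electrochemiluminescence in supernatants of human PBMCs given 400 nM GS-986 for 6 h. Cells (100,000/well in RPMI-1640, 10% FBS) had received test antagonist 1 h beforehand, 10 doses in quadruplicate, at 37 °C.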

The next assay addresses T2, TLR8 (Homo sapiens, UniProt Q9NR97).
T2 construct: Human peripheral blood mononuclear cells (PBMCs) consist of lymphocytes, monocytes and dendritic cells that express TLR7, TLR8 and TLR9; endogenous in cells; host or cells: cryopreserved human PBMCs from healthy donors
T2 sequence (Q9NR97 27-1041): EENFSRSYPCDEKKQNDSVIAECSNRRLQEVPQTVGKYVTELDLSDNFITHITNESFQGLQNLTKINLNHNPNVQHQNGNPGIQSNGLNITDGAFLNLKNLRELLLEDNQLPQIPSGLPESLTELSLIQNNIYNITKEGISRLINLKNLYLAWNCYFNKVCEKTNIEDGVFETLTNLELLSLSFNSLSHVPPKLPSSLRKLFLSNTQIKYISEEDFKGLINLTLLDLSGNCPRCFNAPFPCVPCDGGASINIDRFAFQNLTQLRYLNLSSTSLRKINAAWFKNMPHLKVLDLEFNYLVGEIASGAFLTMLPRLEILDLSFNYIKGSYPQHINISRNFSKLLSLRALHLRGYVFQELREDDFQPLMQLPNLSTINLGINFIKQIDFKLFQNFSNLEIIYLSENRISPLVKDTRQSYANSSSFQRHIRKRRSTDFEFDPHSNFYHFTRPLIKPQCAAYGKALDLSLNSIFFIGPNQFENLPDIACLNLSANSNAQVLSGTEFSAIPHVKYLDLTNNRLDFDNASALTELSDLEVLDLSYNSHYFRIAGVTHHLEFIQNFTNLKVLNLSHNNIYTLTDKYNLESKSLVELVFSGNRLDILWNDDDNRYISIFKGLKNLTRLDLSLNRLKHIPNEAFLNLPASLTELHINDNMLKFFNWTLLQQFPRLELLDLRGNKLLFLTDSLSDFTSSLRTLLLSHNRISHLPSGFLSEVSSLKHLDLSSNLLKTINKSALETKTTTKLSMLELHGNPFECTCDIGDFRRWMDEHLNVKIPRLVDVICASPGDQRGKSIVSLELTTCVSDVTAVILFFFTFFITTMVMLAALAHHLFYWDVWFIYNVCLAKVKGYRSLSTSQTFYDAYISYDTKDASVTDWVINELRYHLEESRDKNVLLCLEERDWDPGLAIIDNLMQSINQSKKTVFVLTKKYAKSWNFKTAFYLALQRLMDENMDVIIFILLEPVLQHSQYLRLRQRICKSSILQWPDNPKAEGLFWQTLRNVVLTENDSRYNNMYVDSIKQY
Put plainly: TLR8 human PBMC cell-based assay (antagonist, Compound A stimulated cytokine release). As to conditions: human PBMCs; TLR8 agonist Compound A 800 nM, 6 hours; cytokines (TNFa and IL 12p40) in supernatant; read-out: TLR-8 EC50. In short, it runs like this:
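Cryopreserved donor PBMCs (100,000/well, RPMI + 10% FBS) were preincubated 1 h with antagonist (10-point dose response, quadruplicate), then stimulated with Compound A (800 nM final) for 6 h at 37 °C. TNFa and IL-12p40 in supernatants were measured by electrochemiluminescence; sigmoidal fits gave EC50.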

Turning to `Cc1cc(-c2[nH]c3cc(C(=O)N(C)C4CCC(N5CC6(C5)CS(=O)(=O)C6)CC4)sc3c2C(C)C)cn2ncnc12` (stereo not drawn) [Example 252], the EC50 (as a rule, the concentration that produces a half-maximal response) at TLR7 came to 9.6 nM; at TLR8 it was 11.2 nM.
For the compound `Cc1cc(-c2[nH]c3cc(C(=O)N(C)C4CCC(N5CC6(COC6)C5)CC4)sc3c2C(C)C)cn2ncnc12` (stereo not drawn) [Example 253], the EC50 on TLR7 worked out at 7.5 nM; on TLR8 it was 8.5 nM.
As for `Cc1cc(-c2[nH]c3cc(C(=O)N(C)C4CCC(N5CCC(F)(F)C5)CC4)sc3c2C(C)C)cn2ncnc12` (stereo not drawn) [Example 254], the results for the concentration for a half-maximal effect (EC50) at TLR7 and on TLR8 were 34.8 nM and 136 nM, respectively.
Turning to `Cc1cc(-c2[nH]c3cc(C4CCN(CCS(C)(=O)=O)CC4)sc3c2C(C)C)cn2ncnc12` [Example 255, 6-isopropyl-5-(8-methyl-[1,2,4]triazolo[1,5-a]pyridin-6-yl)-2-(1-(2-(methylsulfonyl)ethyl)piperidin-4-yl)-4H-thieno[3,2-b]pyrrole], the EC50 on TLR7 was 4.1 nM; at TLR8, 3.2 nM.
As for `Cc1cc(-c2[nH]c3cc(C4CCC(N5CCC(F)C5)CC4)sc3c2C(C)C)cn2ncnc12` (stereo not drawn) [Example 256, 2-(4-(3-fluoropyrrolidin-1-yl)cyclohexyl)-6-isopropyl-5-(8-methyl-[1,2,4]triazolo[1,5-a]pyridin-6-yl)-4H-thieno[3,2-b]pyrrole], the EC50 turned out to be 0.2 nM at TLR7 and 1.8 nM on TLR8.
The like results for `Cc1cc(-c2[nH]c3cc(C4CCC(N5CCC(O)C5)CC4)sc3c2C(C)C)cn2ncnc12` (stereo not drawn) [Example 257] were, in that order, 0.4 nM and 9.6 nM.
Turning to `Cc1cc(-c2[nH]c3cc(C4CCC(N5CCC(OC(F)F)C5)CC4)sc3c2C(C)C)cn2ncnc12` (stereo not drawn) [Example 258], the 50% effective concentration (EC50) on TLR7 turned out to be 2.3 nM; at TLR8, 11.9 nM.
With `Cc1cc(-c2[nH]c3cc(C4CCC(N5CC6(COC6)C5)CC4)sc3c2C(C)C)cn2ncnc12` (stereo not drawn) [Example 260], the EC50 was 0.3 nM at TLR7 and 2 nM on TLR8.
As for `Cc1cc(-c2[nH]c3cc(C4CCC(NC5CC6CC5O6)CC4)sc3c2C(C)C)cn2ncnc12` (stereo not drawn) [Example 261], the EC50 came to 2.2 nM on TLR7 and 9.7 nM at TLR8.
For the compound `Cc1cc(-c2[nH]c3cc(-c4cn(C5CCNCC5)nn4)sc3c2C(C)C)cn2ncnc12` [Example 263, 6-isopropyl-5-(8-methyl-[1,2,4]triazolo[1,5-a]pyridin-6-yl)-2-(1-(piperidin-4-yl)-1H-1,2,3-triazol-4-yl)-4H-thieno[3,2-b]pyrrole], the figures for the EC50 on TLR7 and at TLR8 were 0.3 nM and 6 nM, respectively.
As to `Cc1cc(-c2[nH]c3cc(-c4cn(C5CCN(CCO)CC5)nn4)sc3c2C(C)C)cn2ncnc12` [Example 264, 2-(4-(4-(6-isopropyl-5-(8-methyl-[1,2,4]triazolo[1,5-a]pyridin-6-yl)-4H-thieno[3,2-b]pyrrol-2-yl)-1H-1,2,3-triazol-1-yl)piperidin-1-yl)ethan-1-ol], the EC50 at TLR7 is 1.8 nM; at TLR8, 1.6 nM.
`Cc1cc(-c2[nH]c3cc(CN4CCN(C)CC4)sc3c2C(C)C)cn2ncnc12` [Example 265, 6-isopropyl-5-(8-methyl-[1,2,4]triazolo[1,5-a]pyridin-6-yl)-2-((4-methylpiperazin-1-yl)methyl)-4H-thieno[3,2-b]pyrrole]: the EC50 came to 1.7 nM on TLR7 and 8.2 nM on TLR8.
For the compound `Cc1c(-c2[nH]c3cc(CN4CCC(C)(O)CC4)sc3c2C(C)C)cn2ncnc2c1C` [Example 266], the EC50 is 2.3 nM at TLR7 and 1.2 nM on TLR8.
For the compound `Cc1c(-c2[nH]c3cc(CN4CCC(O)(C(F)(F)F)CC4)sc3c2C(C)C)cn2ncnc2c1C` [Example 267], the EC50 was determined as 37.5 nM on TLR7 and 4.8 nM on TLR8.
Regarding `Cc1cc(-c2[nH]c3cc(C(=O)N(C)C4CCN(CCC(F)(F)F)CC4)sc3c2C(C)C)cn2ncnc12` [Example 269, 6-isopropyl-N-methyl-5-(8-methyl-[1,2,4]triazolo[1,5-a]pyridin-6-yl)-N-[1-(3,3,3-trifluoropropyl)-4-piperidyl]-4H-thieno[3,2-b]pyrrole-2-carboxamide], the EC50 at TLR7 came to 26.5 nM; on TLR8, 14.7 nM.
For `Cc1cc(-c2[nH]c3cc(CN4CCC(C)(O)CC4)sc3c2C(C)C)cn2ncnc12` [Example 270, 1-((6-Isopropyl-5-(8-methyl-[1,2,4]triazolo[1,5-a]pyridin-6-yl)-4H-thieno[3,2-b]pyrrol-2-yl)methyl)-4-methylpiperidin-4-ol], the values for the EC50 at TLR7 and on TLR8 were 8.2 nM and 3 nM, respectively.
The matching figures for `Cc1cc(-c2[nH]c3cc(CN4CC5(C4)CS(=O)(=O)C5)sc3c2C(C)C)cn2ncnc12` [Example 271]: 35 nM and 51.2 nM.
Regarding `Cc1cc(-c2[nH]c3cc(-c4ccc(N5CCN(C)CC5)c(F)c4)sc3c2C(C)C)cn2ncnc12` [Example 272, 2-(3-Fluoro-4-(4-methylpiperazin-1-yl)phenyl)-6-isopropyl-5-(8-methyl-[1,2,4]triazolo[1,5-a]pyridin-6-yl)-4F1-thieno[3,2-b]pyrrole], the EC50 worked out at 1.8 nM at TLR7 and 4.9 nM at TLR8.
Take `Cc1c(-c2[nH]c3cc(C(=O)N(C)[C@@H]4CNC[C@H](C(F)(F)F)C4)sc3c2C(C)C)cn2ncnc2c1C` [Example 273, 5-(7,8-dimethyl-[1,2,4]triazolo[1,5-a]pyridin-6-yl)-6-isopropyl-N-methyl-N-((3S,5R)-5-(trifluoromethyl)piperidin-3-yl)-4H-thieno[3,2-b]pyrrole-2-carboxamide]: the EC50 came to 9.8 nM at TLR7 and 9.7 nM at TLR8.
Turning to `CCN1C[C@@H](N(C)C(=O)c2cc3[nH]c(-c4cn5ncnc5c(C)c4C)c(C(C)C)c3s2)C[C@@H](C(F)(F)F)C1` [Example 274, 5-(7,8-dimethyl-[1,2,4]triazolo[1,5-a]pyridin-6-yl)-N-((3S,5R)-1-ethyl-5-(trifluoromethyl)piperidin-3-yl)-6-isopropyl-N-methyl-4H-thieno[3,2-b]pyrrole-2-carboxamide], the concentration for a half-maximal effect (EC50) came to 360 nM at TLR7 and 70.7 nM on TLR8.
Take `Cc1cc(-c2[nH]c3cc(C(=O)N(C)[C@H]4CNC[C@@H](C(F)(F)F)C4)sc3c2C(C)C)cn2ncnc12` [Example 275]: the figures for the EC50 on TLR7 and on TLR8 were 9 nM and 35.6 nM, respectively.
